Experimental data published in patent US20240358808A1, “VACCINE FOR SARS-COV-2” (FLOW PHARMA, INC., priority 2021, published 2024).

Target: DRB3*0202 (Homo sapiens, UniProt P01903+P79483, A212P/D57E/F66Y/L67A/R103Q/R218S/R40L/S89Y/T80R/V86D/Y55F/Y59H)
Assay: peptide affinity binding assay (peptide-MHC binding)

Chain of DRB3*0202 (P01903 26-254 limits assumed): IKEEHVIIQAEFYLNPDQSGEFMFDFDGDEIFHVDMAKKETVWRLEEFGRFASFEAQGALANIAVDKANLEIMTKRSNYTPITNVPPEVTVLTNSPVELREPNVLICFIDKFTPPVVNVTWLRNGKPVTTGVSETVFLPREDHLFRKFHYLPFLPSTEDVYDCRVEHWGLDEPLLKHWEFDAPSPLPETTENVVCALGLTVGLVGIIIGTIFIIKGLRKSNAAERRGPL
Chain of DRB3*0202 (P79483 30-266 R40L/Y55F/D57E/Y59H/F66Y/L67A/T80R/V86D/S89Y/R103Q/A212P/R218S limits assumed): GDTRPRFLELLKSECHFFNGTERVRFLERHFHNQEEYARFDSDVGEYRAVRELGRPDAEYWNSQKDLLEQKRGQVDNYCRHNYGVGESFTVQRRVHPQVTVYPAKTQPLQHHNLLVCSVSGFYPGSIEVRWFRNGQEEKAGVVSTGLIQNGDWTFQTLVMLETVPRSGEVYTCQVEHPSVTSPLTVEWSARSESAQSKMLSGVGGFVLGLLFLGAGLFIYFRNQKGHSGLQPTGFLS

Compound: CC(C)C[C@H](NC(=O)[C@@H](NC(=O)[C@H](Cc1c[nH]c2ccccc12)NC(=O)[C@H](C)NC(=O)[C@H](C)NC(=O)[C@@H](NC(=O)[C@H](Cc1ccccc1)NC(=O)[C@H](CCCCN)NC(=O)[C@H](C)N)C(C)C)[C@@H](C)O)C(=O)N[C@@H](CCCCN)C(=O)N[C@@H](C)C(=O)N[C@@H](C)C(=O)N[C@@H](C)C(=O)O [PADRE]
- peptide-MHC binding affinity before and after the addition of an infrared fluorophore ligand: essentially unchanged
